We go through 10 molecules from PubChem BioAssay (NCI).

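Tested at 5 concentrations; 48 h exposure; 96-well plates; endpoints linearly interpolated, else capped at highest concentration. Abbreviation: GI50, concentration required for 50% inhibition of growth. The concentration for full growth arrest is given as TGI.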 Some results are limits rather than exact numbers.

Among the test systems are CAKI-1 renal; HL-60(TB) leukemia; OVCAR-3 ovarian; SF-295 CNS; K-562 leukemia; SK-MEL-28 melanoma; NCI-H226 lung; SF-268 CNS; SR leukemia; TK-10 renal.
Experiment in all cases: growth of human tumour cells (NCI), 48 h

For `O=CNc1cccc2c3c([nH]c12)CCCCCC3`, the TGI in the test on CAKI-1 renal, with HL-60(TB) leukemia, in the test with OVCAR-3 ovarian, in the test with SF-295 CNS, in the test on K-562 leukemia and in the test with SK-MEL-28 melanoma was over 100 µM throughout. Further, the TGI in the test with NCI-H226 lung and in the test with SF-268 CNS was over 100 µM in each case.
As for `CCCCc1ccc2[n+](c1)C(C(=O)OCC)=PC2` (stereo unspecified), the TGI with CAKI-1 renal, in the test with HL-60(TB) leukemia, in the test with OVCAR-3 ovarian, in the test with SR leukemia, in the test on SF-295 CNS and with TK-10 renal was over 100 µM in each case. In addition, the TGI in the test on SK-MEL-28 melanoma and in the test on SF-268 CNS was over 100 µM in each case.
Take `Cc1cc(NS(=O)(=O)c2ccc(Nc3c4ccccc4nc4c(C(=O)NCCN(C)C)ccc(Cl)c34)cc2)no1`: the TGI is 5.58 µM with HL-60(TB) leukemia; 23.9 µM in the test with OVCAR-3 ovarian; 10.8 µM in the test with SR leukemia; 16.2 µM with SF-295 CNS; 21.2 µM with K-562 leukemia; 27.1 µM in the test on TK-10 renal. Also, the figures for the TGI in the test on SK-MEL-28 melanoma, with NCI-H226 lung and in the test on SF-268 CNS were 16.1 µM, 4.57 µM and 15.3 µM, respectively.
On to `COc1ccc(C(=O)Cc2cc(OC)ccc2OC)cc1`, for which the TGI in the test on CAKI-1 renal, in the test with HL-60(TB) leukemia, in the test with OVCAR-3 ovarian, in the test with SR leukemia, in the test on SF-295 CNS and in the test with K-562 leukemia was over 100 µM in each case. For the same molecule, the TGI with TK-10 renal, with NCI-H226 lung and in the test on SF-268 CNS was over 100 µM throughout.
As to `C=C1C(=O)O[C@H]2C1[C@H](OC(=O)/C(C)=C\COC(C)=O)C[C@]1(CO1)[C@@H]1[C@H](O)[C@H]3O[C@@]3(C)[C@@H]12` (stereo partly specified), the TGI is 31.5 µM with CAKI-1 renal; over 57.7 µM with HL-60(TB) leukemia; 44.8 µM in the test with OVCAR-3 ovarian; over 100 µM in the test with SF-295 CNS; 27 µM with K-562 leukemia; 31.7 µM in the test on SK-MEL-28 melanoma. Further, the values for the TGI with NCI-H226 lung and in the test on SF-268 CNS were 78.1 µM and 49.7 µM, respectively.
Consider `O=C1c2ccccc2-c2ccc(NC(=O)C3CCCCC3C(=O)O)cc21` (stereo unspecified), for which the TGI with CAKI-1 renal, in the test on HL-60(TB) leukemia, with OVCAR-3 ovarian, in the test with SR leukemia, in the test with SF-295 CNS and in the test with K-562 leukemia was over 100 µM each time. Further, the TGI with TK-10 renal, with SK-MEL-28 melanoma, in the test on NCI-H226 lung and in the test on SF-268 CNS was over 100 µM each time.
`COc1cc(N=Nc2cccc(S(=O)(=O)O)c2)c(C)cc1N=Nc1ccc(/C=C/c2ccc(N=[N+]([O-])c3ccc(/C=C/c4ccc(N=Nc5cc(C)c(N=Nc6cccc(S(=O)(=O)O)c6)cc5OC)cc4)c(S(=O)(=O)O)c3)cc2S(=O)(=O)O)cc1`: the TGI in the test on HL-60(TB) leukemia, in the test with OVCAR-3 ovarian, in the test with SF-295 CNS, with K-562 leukemia, in the test on SK-MEL-28 melanoma and with NCI-H226 lung was over 100 µM throughout. In the test on SF-268 CNS, this molecule showed a TGI of over 100 µM.
For `COC(=O)C(C)N1C(=O)c2ccccc2I1OC(C)=O` (stereo unspecified), the GI50 in the test with CAKI-1 renal is over 100 µM; in the test with HL-60(TB) leukemia, 47.2 µM; in the test with OVCAR-3 ovarian, 23.3 µM; in the test with SR leukemia it was 19.7 µM; with SF-295 CNS it was over 100 µM; with K-562 leukemia, 41.6 µM. Also, the GI50 with TK-10 renal is 29.2 µM; in the test with SK-MEL-28 melanoma it was 88 µM; in the test on NCI-H226 lung it was over 100 µM; with SF-268 CNS, 69 µM. Also, the TGI with CAKI-1 renal is over 100 µM; with HL-60(TB) leukemia it was over 100 µM; in the test with OVCAR-3 ovarian, over 100 µM; in the test on SR leukemia, 49.2 µM; in the test with SF-295 CNS, over 100 µM; with K-562 leukemia, over 100 µM. In addition, the TGI in the test with TK-10 renal, in the test with SK-MEL-28 melanoma, in the test on NCI-H226 lung and in the test on SF-268 CNS was over 100 µM throughout.
In the case of `CCOC(=O)C1C(c2cc(OC)c(O)c(OC)c2)c2cc3c(cc2OC1(C)O)OCO3` (stereo unspecified), the TGI in the test with CAKI-1 renal is 95.2 µM; with HL-60(TB) leukemia, over 100 µM; in the test on OVCAR-3 ovarian, over 100 µM; in the test on SF-295 CNS, over 100 µM; in the test with K-562 leukemia, over 100 µM; in the test on TK-10 renal it was over 100 µM. This molecule showed a TGI in the test with SK-MEL-28 melanoma of over 100 µM.
On to `CC(C)=CCN(N=O)c1ncnc2nc[nH]c12`, for which the TGI in the test on CAKI-1 renal, with HL-60(TB) leukemia, with OVCAR-3 ovarian, with SR leukemia, in the test with SF-295 CNS and in the test with K-562 leukemia was over 100 µM throughout. The TGI in the test with TK-10 renal, in the test on SK-MEL-28 melanoma, in the test on NCI-H226 lung and in the test on SF-268 CNS was over 100 µM throughout.
